Data from patent publication US11807625B2, “Capsid inhibitors for the prevention of HIV” (Gilead Sciences, Inc., priority 2019, dated 2023).
Like-named read-outs stand apart in the source and are kept apart here.

Assay: PK of compound of Formula (Ia) after single subcutaneous dose of solution formulations in beagle dogs
Type: in vivo
Settings: male, beagle, dog, plasma, sc, 12 mg/kg; for AUC(0-t): male beagle dogs, single SC 12 mg/kg, mean ± SD, n = 3
Experimental: Formulations containing the compound of Formula (Ia), or a pharmaceutically acceptable salt thereof, were prepared as solutions and optionally administered subcutaneously or intramuscularly to rats, rabbits, and/or dogs.
(§1) A solution of about 400 mg/mL of the compound of Formula (Ia) having 17.00 w/w % water, 36.40 w/w % PEG 300, 35.20 w/w % of a sodium salt of a compound of Formula (Ia), 5.00 w/w % ethanol, and 6.40 w/w % poloxamer 188 was prepared. The solution was administered subcutaneously to male beagle dogs at a dose level of about 12 mg/kg and male Wistar Han rats at a dose level of about 50 mg/kg. The pharmacokinetic profiles were determined, and the results for dogs are summarized in Table and Table, while the results for rats are summarized in Table and Table below.
as §1, with “500” for “400”, “14.06” for “17.00”, “30.12” for “36.40”
A solution of about 300 mg/mL of the compound of Formula (Ia) having 23.33 w/w % water, 48.99 w/w % PEG 300, 26.47 w/w % of a sodium salt of a compound of Formula (Ia), and 1.21 w/w % poloxamer 188 was prepared. The solution was administered subcutaneously to male beagle dogs at a dose level of about 6 mg/kg and male Wistar Han rats at a dose level of about 50 mg/kg. The pharmacokinetic profiles were determined, and the results for dogs are summarized in Table and Table, while the results for rats are summarized in Table and Table below.
as §1, with “18.80” for “17.00”, “40.25” for “36.40”, “34.38” for “35.20”, “1.57” for “6.40”
as §1, with “500” for “400”, “16.29” for “17.00”, “34.88” for “36.40”, “41.92” for “35.20”, “1.91” for “6.40”
as §1, with “20.90” for “17.00”, “44.72” for “36.40”, “and 34.38” for “35.20”, “(Ia)” for “(Ia), 5.00 w/w % ethanol, and 6.40 w/w % poloxamer 188”
A solution of about 400 mg/mL of the compound of Formula (Ia) having 19.90 w/w % water, 42.59 w/w % PEG 300, 34.38 w/w % of a sodium salt of a compound of Formula (Ia), and 3.13 w/w % poloxamer 188 was prepared. The solution was administered subcutaneously to male beagle dogs at a dose level of about 12 mg/kg and male Wistar Han rats at a dose level of about 50 mg/kg. […]

[1] = beagle dogs, SC 12 mg/kg, 500 mg/mL solution X (5.00% ethanol, 1.91% poloxamer 188), Mean n = 3
[2] = beagle dogs, SC 12 mg/kg, 500 mg/mL solution X (5.00% ethanol, 1.91% poloxamer 188), animals #1-#3

concentration at 24 h [1]: 39.7 nM
concentration at 24 h [2]: 32.8 nM
concentration at 48 h [1]: 44.7 nM
concentration at 48 h [2]: 39.8 nM
concentration at 72 h (beagle dogs, SC 12 mg/kg, 500 mg/mL solution X (5.00% ethanol, 1.91% poloxamer 188), 72.0 h, Mean n = 3): 36.5 nM
concentration at 96 h (beagle dogs, SC 12 mg/kg, 500 mg/mL solution X (5.00% ethanol, 1.91% poloxamer 188), 96.0 h, Mean n = 3): 31.4 nM
concentration at 168 h (beagle dogs, SC 12 mg/kg, 500 mg/mL solution X (5.00% ethanol, 1.91% poloxamer 188), 168 h, Mean n = 3): 39.2 nM
concentration at 336 h (beagle dogs, SC 12 mg/kg, 500 mg/mL solution X (5.00% ethanol, 1.91% poloxamer 188), 336 h, Mean n = 3): 50.3 nM
concentration at 504 h (beagle dogs, SC 12 mg/kg, 500 mg/mL solution X (5.00% ethanol, 1.91% poloxamer 188), 504 h, Mean n = 3): 114 nM
concentration at 672 h (beagle dogs, SC 12 mg/kg, 500 mg/mL solution X (5.00% ethanol, 1.91% poloxamer 188), 672 h, Mean n = 3): 110 nM
concentration at 840 h (beagle dogs, SC 12 mg/kg, 500 mg/mL solution X (5.00% ethanol, 1.91% poloxamer 188), 840 h, Mean n = 3): 61.4 nM
concentration at 1008 h (beagle dogs, SC 12 mg/kg, 500 mg/mL solution X (5.00% ethanol, 1.91% poloxamer 188), 1008 h, Mean n = 3): 68.3 nM
concentration at 1344 h (beagle dogs, SC 12 mg/kg, 500 mg/mL solution X (5.00% ethanol, 1.91% poloxamer 188), 1344 h, Mean n = 3): 48.5 nM
concentration at 1680 h (beagle dogs, SC 12 mg/kg, 500 mg/mL solution X (5.00% ethanol, 1.91% poloxamer 188), 1680 h, Mean n = 3): 37.7 nM
concentration at 2016 h (beagle dogs, SC 12 mg/kg, 500 mg/mL solution X (5.00% ethanol, 1.91% poloxamer 188), 2016 h, Mean n = 3): 23.4 nM
concentration at 2352 h (beagle dogs, SC 12 mg/kg, 500 mg/mL solution X (5.00% ethanol, 1.91% poloxamer 188), 2352 h, Mean n = 3): 24.3 nM
concentration at 2688 h (beagle dogs, SC 12 mg/kg, 500 mg/mL solution X (5.00% ethanol, 1.91% poloxamer 188), 2688 h, Mean n = 3): 14.6 nM
concentration at 3024 h (beagle dogs, SC 12 mg/kg, 500 mg/mL solution X (5.00% ethanol, 1.91% poloxamer 188), 3024 h, Mean n = 3): 14.6 nM
concentration at 3360 h (beagle dogs, SC 12 mg/kg, 500 mg/mL solution X (5.00% ethanol, 1.91% poloxamer 188), 3360 h, Mean n = 3): 9.6 nM
concentration at 3696 h (beagle dogs, SC 12 mg/kg, 500 mg/mL solution X (5.00% ethanol, 1.91% poloxamer 188), 3696 h, Mean n = 3): 8.6 nM
concentration at 4032 h (beagle dogs, SC 12 mg/kg, 500 mg/mL solution X (5.00% ethanol, 1.91% poloxamer 188), 4032 h, Mean n = 3): 8.3 nM
concentration at 4368 h (beagle dogs, SC 12 mg/kg, 500 mg/mL solution X (5.00% ethanol, 1.91% poloxamer 188), 4368 h, Mean n = 3): 6.4 nM
AUC(0-t) (400 mg/mL solution AA (6.25% poloxamer 188), read-out: AUC0-24 h): 1.57 ± 0.56 µM·h
AUC(0-t) (400 mg/mL solution AA (6.25% poloxamer 188), read-out: AUC0-168 h): 22.2 ± 7 µM·h
AUC(0-t) (400 mg/mL solution AA (6.25% poloxamer 188), read-out: AUC0-336 h): 46.3 ± 9.4 µM·h
AUC(0-t) (400 mg/mL solution AA (6.25% poloxamer 188), read-out: AUC0-672 h): 108 ± 26 µM·h
AUC(0-t) (400 mg/mL solution AA (6.25% poloxamer 188), read-out: AUC0-1008 h): 149 ± 31 µM·h
AUC(0-t) (400 mg/mL solution AA (6.25% poloxamer 188), read-out: AUC0-1344 h): 171 ± 33 µM·h
AUC(0-t) (400 mg/mL solution AA (6.25% poloxamer 188), read-out: AUC0-2352 h): 195 ± 35 µM·h
AUC(0-t) (400 mg/mL solution AA (6.25% poloxamer 188), read-out: AUC0-3024 h): 200 ± 35 µM·h
AUC(0-t) (400 mg/mL solution AA (6.25% poloxamer 188), read-out: AUC0-3696 h): 208 ± 47 µM·h
AUC(0-t) (400 mg/mL solution Y (water, PEG 300), read-out: AUC0-24 h): 0.996 ± 0.513 µM·h
AUC(0-t) (400 mg/mL solution Y (water, PEG 300), read-out: AUC0-168 h): 9.61 ± 2.6 µM·h
AUC(0-t) (400 mg/mL solution Y (water, PEG 300), read-out: AUC0-336 h): 27.4 ± 1.9 µM·h
AUC(0-t) (400 mg/mL solution Y (water, PEG 300), read-out: AUC0-672 h): 100 ± 7.2 µM·h
AUC(0-t) (400 mg/mL solution Y (water, PEG 300), read-out: AUC0-1008 h): 146 ± 11 µM·h
AUC(0-t) (400 mg/mL solution Y (water, PEG 300), read-out: AUC0-1344 h): 172 ± 16 µM·h
AUC(0-t) (400 mg/mL solution Y (water, PEG 300), read-out: AUC0-2352 h): 200 ± 19 µM·h
AUC(0-t) (400 mg/mL solution Y (water, PEG 300), read-out: AUC0-3024 h): 207 ± 19 µM·h
AUC(0-t) (400 mg/mL solution Y (water, PEG 300), read-out: AUC0-3696 h): 210 ± 18 µM·h
AUC(0-t) (400 mg/mL solution Z (3.13% poloxamer 188), read-out: AUC0-24 h): 1.02 ± 0.58 µM·h
AUC(0-t) (400 mg/mL solution Z (3.13% poloxamer 188), read-out: AUC0-168 h): 10.6 ± 4.9 µM·h
AUC(0-t) (400 mg/mL solution Z (3.13% poloxamer 188), read-out: AUC0-336 h): 30.1 ± 14.8 µM·h
AUC(0-t) (400 mg/mL solution Z (3.13% poloxamer 188), read-out: AUC0-672 h): 92.7 ± 31 µM·h
AUC(0-t) (400 mg/mL solution Z (3.13% poloxamer 188), read-out: AUC0-1008 h): 125 ± 31 µM·h
AUC(0-t) (400 mg/mL solution Z (3.13% poloxamer 188), read-out: AUC0-1344 h): 147 ± 32 µM·h
AUC(0-t) (400 mg/mL solution Z (3.13% poloxamer 188), read-out: AUC0-2352 h): 170 ± 33 µM·h
SMILES: CC(C)(C#Cc1ccc(-c2ccc(Cl)c3c(NS(C)(=O)=O)nn(CC(F)(F)F)c23)c([C@H](Cc2cc(F)cc(F)c2)NC(=O)Cn2nc(C(F)(F)F)c3c2C(F)(F)[C@@H]2C[C@H]32)n1)S(C)(=O)=O [compound of Formula (Ia)]
